The conditions of data set [1]: male, Sprague-Dawley, rat, intravenous, n = 3, mean ± SD.
For data set [2] the following is noted: rat, cited from earlier work.
Data set [3] is described as follows: Rat pharmacokinetics following an IV single bolus. The class given is in vivo. The note with it: plasma, 1 mg/kg.
In data set [4] the test system is parental MDCK cell. The note with it: parental MDCK cell assay; cited from earlier work.
The conditions of data set [5]: rat microdialysis, brain versus blood; cited from earlier work.
The conditions of data set [6]: humans; cited from earlier work.
The mark [7] stands for this setting: K puu liver, ratio of unbound liver concentration to unbound blood concentration at steady state.
The mark [8] stands for this setting: K puu muscle, ratio of unbound muscle concentration to unbound blood concentration at steady state.

Where two headings read alike, the source gives them in different places. Some results are limits rather than exact numbers.

What is called Kp is the ratio of the level in a tissue or fluid to that in plasma or blood. Turning to `Cc1cc(=O)n(-c2ccccc2)n1C` [Antipyrine], the results for the Kp in data set [1] (setting [7]) and in data set [1] (setting [8]) were 0.932 ± 0.178 and 0.771 ± 0.215, respectively. The “reported plasma CL” value in data set [2] (ref 24, 25, 26, 27) was 4.80 mL/min/kg.

What is called Vd is a proportionality between amount in the body and measured concentration, not a real space. Lower therefore signals little distribution into tissue. By clearance is commonly meant a measure of how efficiently the substance is removed, as volume per time. Read a low clearance as a low capacity for elimination. As usually defined, the half-life is how long it takes for the measured level to halve. A high value points to slow loss. In data set [3], `NCC1(CC(=O)O)CCCCC1` [Gabapentin, gabapentin] had a Vd of 0.451 ± 0.001 L/kg, a clearance of 1.53 ± 0.31 mL/min/kg and a half-life of 3.58 ± 0.87 h. The Kp in data set [1] (setting [7]) was determined as 2.23. In addition, the Kp in data set [1] (setting [8]) is 1.39 ± 0.51.

On to `NC(=O)N1c2ccccc2C=Cc2ccccc21` [Carbamazepine, carbamazepine], for which the Kp in data set [1] (setting [7]) came out at 0.913 ± 0.169; in data set [1] (setting [8]), 1.02 ± 0.27. In data set [2] (ref 24, 25, 26, 27), the “reported plasma CL” value is 15.0 mL/min/kg. Moreover, the “N-glucuronide as share of the administered dose” value in data set [2] (ref 34) is given as 20%–30%. The P app in data set [4] is 27.5 ×10⁻⁶ cm/s.

Regarding `CC12CC3CC(C)(C1)CC(N)(C3)C2` [Memantine, memantine], in data set [3], the Vd is 7.36 ± 1.58 L/kg, the clearance came out at 60.5 ± 9.9 mL/min/kg and the half-life was 1.72 ± 0.03 h. For the same compound, the “reported K puu,brain” value in data set [5] was 1.80. The partition ratio (Kp) in data set [1] (setting [7]) amounted to 1.56. The Kp in data set [1] (setting [8]) was found to be 2.13. In data set [2] (ref 18, 19, 20, 21, 22, 23), the “reported plasma CL” value was 69 mL/min/kg. Moreover, in data set [2] (ref 47), the “plasma CL” value was “about 45 ml/min/kg” and the “renal CL” value is “about 13 ml/min/kg”.

In data set [3], `COc1ccc(CN(CCN(C)C)c2ccccn2)cc1` [Pyrilamine, pyrilamine] gave a Vd of 12.6 ± 1.6 L/kg, a clearance of 167 ± 24 mL/min/kg and a half-life of 2.16 ± 0.63 h. The “reported K puu,brain” value in data set [5] is on record as 2.50.

As to `CC(C)NCC(O)COc1cccc2ccccc12` (stereo not shown) [Propranolol, propranolol], the “reported plasma CL” value in data set [2] (ref 18, 19, 20, 21, 22, 23) was 70 to 90 mL/min/kg. In addition, the P app in data set [4] was 11 ×10⁻⁶ cm/s.

In the case of `COc1ccc([C@@H]2Sc3ccccc3N(CCN(C)C)C(=O)[C@@H]2OC(C)=O)cc1` [Diltiazem, diltiazem], the “reported plasma CL” value in data set [2] (ref 18, 19, 20, 21, 22, 23) is 90 mL/min/kg.

For the compound `C[C@H]1O[C@@H](O[C@H]2[C@@H](O)C[C@H](O[C@H]3[C@@H](O)C[C@H](O[C@H]4CC[C@@]5(C)[C@H](CC[C@@H]6[C@@H]5C[C@@H](O)[C@]5(C)[C@@H](C7=CC(=O)OC7)CC[C@]65O)C4)O[C@@H]3C)O[C@@H]2C)C[C@H](O)[C@@H]1O` [Digoxin, digoxin], the “reported plasma CL” value in data set [2] (ref 20, 26, 36, 37) was 17.3 mL/min/kg. Besides, the “reported plasma CL” value in data set [2] (ref 24, 25, 26, 27) is 17.3 mL/min/kg. In data set [2] (ref 26), the “non-renal CL (biliary excretion + hepatic metabolism) as share of total CL” value is reported as 70%–80% and the “renal CL as share of total CL” value is 20%–30%.

For the compound `CC1COc2c(N3CCN(C)CC3)c(F)cc3c(=O)c(C(=O)O)cn1c23` (stereo not shown) [Ofloxacin, ofloxacin], in data set [1] (setting [7]), the Kp is around 0.501. For the same compound, in data set [1] (setting [8]), the Kp is 0.641 ± 0.206. For the same compound, the “reported plasma CL” value in data set [2] (ref 20, 26, 36, 37) is 27.5 mL/min/kg. Further, in data set [2] (ref 36), the “non-renal CL (biliary excretion + metabolism) as share of total CL” value is recorded as “about 45%”, the “renal CL” value was “about 15 ml/min/kg”, the “renal CL as share of total CL” value is 55% and the “total CL” value is 27.5 mL/min/kg.

In the case of `C=C[C@H]1C[N@@]2CC[C@H]1C[C@@H]2[C@@H](O)c1ccnc2ccc(OC)cc12` [Quinidine, quinidine], the Kp in data set [1] (setting [7]) was determined as 0.677 ± 0.27; in data set [1] (setting [8]) it was 1.75 ± 0.64.

For the compound `CC(C)NCC(O)COc1ccc(CC(N)=O)cc1` (stereo not shown) [Atenolol, atenolol], the “share eliminated via the kidneys” value in data set [6] was above 95%.

The values are drawn from publication PMC8502442 (Pharmacology Research & Perspectives, 2021).
